Key:
[1] = test system: Mast/stem cell growth factor receptor Kit (Homo sapiens), P10721 [V559D,V654A]; conditions: Compound concentration 1000.0 nM
[2] = test system: Tyrosine-protein kinase ABL1 (Homo sapiens), P00519 [H396P]; conditions: Compound concentration 1000.0 nM
[3] = target: Serine/threonine-protein kinase DCLK3 (Homo sapiens) (UniProt Q9C098); conditions: Compound concentration 1000.0 nM
[4] = test system: Tyrosine-protein kinase ABL1 (Homo sapiens), P00519 [E255K]; conditions: Compound concentration 1000.0 nM
[5] = target: Cyclin-G-associated kinase (Homo sapiens) (UniProt O14976); conditions: Compound concentration 1000.0 nM
[6] = target: Leukocyte tyrosine kinase receptor (Homo sapiens) (UniProt P29376); conditions: Compound concentration 1000.0 nM
[7] = target: Ephrin type-A receptor 2 (Homo sapiens) (UniProt P29317); conditions: Compound concentration 1000.0 nM
[8] = target: Serine/threonine-protein kinase PAK 5 (Homo sapiens) (UniProt Q9P286); conditions: Compound concentration 1000.0 nM
[9] = target: Receptor-interacting serine/threonine-protein kinase 2 (Homo sapiens) (UniProt O43353); conditions: Compound concentration 1000.0 nM
[10] = target: Vascular endothelial growth factor receptor 2 (Homo sapiens) (UniProt P35968); conditions: Compound concentration 1000.0 nM
[11] = target: Casein kinase II subunit alpha (Homo sapiens) (UniProt P68400); conditions: Compound concentration 1000.0 nM
[12] = target: Calcium/calmodulin-dependent protein kinase type II subunit delta (Homo sapiens) (UniProt Q13557); conditions: Compound concentration 1000.0 nM
[13] = target: Serine/threonine-protein kinase pim-3 (Homo sapiens) (UniProt Q86V86); conditions: Compound concentration 1000.0 nM
[14] = test system: Epidermal growth factor receptor (Homo sapiens), P00533 [T790M]; conditions: Compound concentration 1000.0 nM
[15] = test system: Epidermal growth factor receptor (Homo sapiens), P00533 [G719S]; conditions: Compound concentration 1000.0 nM
[16] = target: Muscarinic acetylcholine receptor M4 (Homo sapiens) (UniProt P08173); conditions: Compound concentration 10.0 uM
[17] = target: MAP kinase-interacting serine/threonine-protein kinase 2 (Homo sapiens) (UniProt Q9HBH9); conditions: Compound concentration 1000.0 nM
[18] = test system: Tyrosine-protein kinase ABL1 (Homo sapiens), P00519 [F317L]; conditions: Compound concentration 1000.0 nM
[19] = target: Cyclin-dependent kinase 17 (Homo sapiens) (UniProt Q00537); conditions: Compound concentration 1000.0 nM
[20] = target: Serine/threonine-protein kinase 35 (Homo sapiens) (UniProt Q8TDR2); conditions: Compound concentration 1000.0 nM
[21] = target: 5-hydroxytryptamine receptor 2C (Homo sapiens) (UniProt P28335); conditions: Compound concentration 10.0 uM
[22] = target: 5-hydroxytryptamine receptor 2B (Homo sapiens) (UniProt P41595); conditions: Compound concentration 10.0 uM
[23] = target: ALK tyrosine kinase receptor (Homo sapiens) (UniProt Q9UM73); conditions: Compound concentration 1000.0 nM
[24] = target: Mitogen-activated protein kinase kinase kinase 6 (Homo sapiens) (UniProt O95382); conditions: Compound concentration 1000.0 nM
[25] = target: Cyclin-dependent kinase-like 3 (Homo sapiens) (UniProt Q8IVW4); conditions: Compound concentration 1000.0 nM
[26] = target: Fibroblast growth factor receptor 3 (Homo sapiens) (UniProt P22607); conditions: Compound concentration 1000.0 nM
[27] = target: Dual specificity mitogen-activated protein kinase kinase 7 (Homo sapiens) (UniProt O14733); conditions: Compound concentration 1000.0 nM
[28] = target: Mast/stem cell growth factor receptor Kit (Homo sapiens) (UniProt P10721); conditions: Compound concentration 1000.0 nM
[29] = target: Interleukin-1 receptor-associated kinase 1 (Homo sapiens) (UniProt P51617); conditions: Compound concentration 1000.0 nM
[30] = target: Dual specificity tyrosine-phosphorylation-regulated kinase 1A (Homo sapiens) (UniProt Q13627); conditions: Compound concentration 1000.0 nM
[31] = target: 5-hydroxytryptamine receptor 1B (Homo sapiens) (UniProt P28222); conditions: Compound concentration 10.0 uM
[32] = target: Cyclin-dependent kinase-like 2 (Homo sapiens) (UniProt Q92772); conditions: Compound concentration 1000.0 nM
[33] = target: Mitogen-activated protein kinase kinase kinase 2 (Homo sapiens) (UniProt Q9Y2U5); conditions: Compound concentration 1000.0 nM
[34] = test system: Tyrosine-protein kinase ABL1 (Homo sapiens), P00519 [Q252H]; conditions: Compound concentration 1000.0 nM
[35] = target: AP2-associated protein kinase 1 (Homo sapiens) (UniProt Q2M2I8); conditions: Compound concentration 1000.0 nM
[36] = target: Epithelial discoidin domain-containing receptor 1 (Homo sapiens) (UniProt Q08345); conditions: Compound concentration 1000.0 nM
[37] = test system: Receptor-type tyrosine-protein kinase FLT3 (Homo sapiens), P36888 [UNDEFINED MUTATION]; conditions: Compound concentration 1000.0 nM
[38] = target: Receptor tyrosine-protein kinase erbB-2 (Homo sapiens) (UniProt P04626); conditions: Compound concentration 1000.0 nM
[39] = target: Ribosomal protein S6 kinase alpha-3 (Homo sapiens) (UniProt P51812); conditions: Compound concentration 1000.0 nM
[40] = target: Wee1-like protein kinase 2 (Homo sapiens) (UniProt P0C1S8); conditions: Compound concentration 1000.0 nM
[41] = target: Tyrosine-protein kinase SYK (Homo sapiens) (UniProt P43405); conditions: Compound concentration 1000.0 nM
[42] = target: Tyrosine-protein kinase Tec (Homo sapiens) (UniProt P42680); conditions: Compound concentration 1000.0 nM
[43] = target: LIM domain kinase 1 (Homo sapiens) (UniProt P53667); conditions: Compound concentration 1000.0 nM
[44] = test system: ALK tyrosine kinase receptor (Homo sapiens), Q9UM73 [C1156Y]; conditions: Compound concentration 1000.0 nM
[45] = target: Inhibitor of nuclear factor kappa-B kinase subunit beta (Homo sapiens) (UniProt O14920); conditions: Compound concentration 1000.0 nM

Interleukin-1 receptor-associated kinase 1 (Homo sapiens), sequence (P51617 whole entry, looked up): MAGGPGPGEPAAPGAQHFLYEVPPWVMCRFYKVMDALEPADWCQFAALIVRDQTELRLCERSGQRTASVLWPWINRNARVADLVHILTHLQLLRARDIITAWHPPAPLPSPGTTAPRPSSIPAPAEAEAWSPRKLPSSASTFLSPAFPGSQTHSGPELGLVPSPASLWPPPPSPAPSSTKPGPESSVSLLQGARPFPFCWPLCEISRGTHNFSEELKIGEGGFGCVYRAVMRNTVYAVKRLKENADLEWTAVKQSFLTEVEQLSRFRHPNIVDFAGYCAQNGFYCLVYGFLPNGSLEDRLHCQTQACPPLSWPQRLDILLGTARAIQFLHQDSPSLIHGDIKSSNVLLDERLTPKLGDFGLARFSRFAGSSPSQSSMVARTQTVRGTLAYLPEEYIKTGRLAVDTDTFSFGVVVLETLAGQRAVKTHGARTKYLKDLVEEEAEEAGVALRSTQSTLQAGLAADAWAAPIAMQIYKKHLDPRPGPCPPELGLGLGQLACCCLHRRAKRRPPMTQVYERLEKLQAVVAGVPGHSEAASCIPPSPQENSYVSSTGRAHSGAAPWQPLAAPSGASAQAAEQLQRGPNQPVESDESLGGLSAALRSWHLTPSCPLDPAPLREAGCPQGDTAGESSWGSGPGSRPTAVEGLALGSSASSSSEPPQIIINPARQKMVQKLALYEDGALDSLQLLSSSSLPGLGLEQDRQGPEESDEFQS
5-hydroxytryptamine receptor 1B (Homo sapiens), sequence (P28222 whole entry): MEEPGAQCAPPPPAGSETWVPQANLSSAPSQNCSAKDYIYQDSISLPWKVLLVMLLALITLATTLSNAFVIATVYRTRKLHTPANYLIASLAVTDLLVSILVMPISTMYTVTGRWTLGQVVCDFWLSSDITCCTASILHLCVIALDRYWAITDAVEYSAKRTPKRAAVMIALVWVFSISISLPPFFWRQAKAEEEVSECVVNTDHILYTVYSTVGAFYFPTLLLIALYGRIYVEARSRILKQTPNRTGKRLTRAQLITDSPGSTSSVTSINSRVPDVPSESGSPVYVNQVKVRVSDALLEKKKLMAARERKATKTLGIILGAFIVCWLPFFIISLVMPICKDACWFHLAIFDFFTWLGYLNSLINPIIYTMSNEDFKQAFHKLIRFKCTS
Leukocyte tyrosine kinase receptor (Homo sapiens), sequence (P29376 whole entry): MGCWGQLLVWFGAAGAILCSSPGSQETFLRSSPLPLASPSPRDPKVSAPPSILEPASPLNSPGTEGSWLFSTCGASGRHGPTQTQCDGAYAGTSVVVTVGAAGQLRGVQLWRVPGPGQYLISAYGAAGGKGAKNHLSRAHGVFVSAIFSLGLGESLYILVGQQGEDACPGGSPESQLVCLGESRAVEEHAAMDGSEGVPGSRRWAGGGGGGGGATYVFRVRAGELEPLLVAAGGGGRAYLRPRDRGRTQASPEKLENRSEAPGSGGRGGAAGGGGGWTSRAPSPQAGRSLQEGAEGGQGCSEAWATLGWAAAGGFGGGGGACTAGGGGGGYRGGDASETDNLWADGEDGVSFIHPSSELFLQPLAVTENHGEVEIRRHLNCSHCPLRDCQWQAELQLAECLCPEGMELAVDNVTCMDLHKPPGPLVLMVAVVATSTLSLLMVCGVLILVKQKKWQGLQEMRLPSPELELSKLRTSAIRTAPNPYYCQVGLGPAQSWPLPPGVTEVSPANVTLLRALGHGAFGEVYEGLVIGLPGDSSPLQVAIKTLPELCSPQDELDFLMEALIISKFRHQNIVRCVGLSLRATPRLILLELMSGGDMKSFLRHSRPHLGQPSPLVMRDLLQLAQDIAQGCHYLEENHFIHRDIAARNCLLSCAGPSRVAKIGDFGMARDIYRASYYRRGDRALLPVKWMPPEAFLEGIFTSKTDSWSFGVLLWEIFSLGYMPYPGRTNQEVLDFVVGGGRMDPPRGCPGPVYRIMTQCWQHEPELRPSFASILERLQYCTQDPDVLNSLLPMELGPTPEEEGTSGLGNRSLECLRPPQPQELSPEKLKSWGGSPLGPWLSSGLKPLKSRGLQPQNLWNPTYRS
LIM domain kinase 1 (Homo sapiens), sequence (P53667 whole entry, looked up, the tested form may be a part): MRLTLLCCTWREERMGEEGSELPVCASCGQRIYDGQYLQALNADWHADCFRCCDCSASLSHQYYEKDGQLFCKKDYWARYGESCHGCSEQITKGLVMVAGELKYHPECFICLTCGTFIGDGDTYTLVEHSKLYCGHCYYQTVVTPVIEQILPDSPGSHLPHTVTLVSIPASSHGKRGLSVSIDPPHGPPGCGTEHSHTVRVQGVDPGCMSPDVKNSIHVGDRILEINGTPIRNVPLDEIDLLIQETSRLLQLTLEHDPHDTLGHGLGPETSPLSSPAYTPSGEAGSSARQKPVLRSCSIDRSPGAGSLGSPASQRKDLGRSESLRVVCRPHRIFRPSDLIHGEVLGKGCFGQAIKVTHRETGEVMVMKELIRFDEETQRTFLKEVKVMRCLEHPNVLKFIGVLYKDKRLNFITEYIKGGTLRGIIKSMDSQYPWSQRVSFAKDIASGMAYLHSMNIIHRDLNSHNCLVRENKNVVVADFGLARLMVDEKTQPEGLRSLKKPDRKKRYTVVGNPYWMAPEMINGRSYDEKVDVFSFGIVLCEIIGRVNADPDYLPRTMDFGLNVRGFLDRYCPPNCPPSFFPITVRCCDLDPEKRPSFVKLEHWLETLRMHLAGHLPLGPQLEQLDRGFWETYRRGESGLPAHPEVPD
Muscarinic acetylcholine receptor M4 (Homo sapiens), sequence (P08173 whole entry): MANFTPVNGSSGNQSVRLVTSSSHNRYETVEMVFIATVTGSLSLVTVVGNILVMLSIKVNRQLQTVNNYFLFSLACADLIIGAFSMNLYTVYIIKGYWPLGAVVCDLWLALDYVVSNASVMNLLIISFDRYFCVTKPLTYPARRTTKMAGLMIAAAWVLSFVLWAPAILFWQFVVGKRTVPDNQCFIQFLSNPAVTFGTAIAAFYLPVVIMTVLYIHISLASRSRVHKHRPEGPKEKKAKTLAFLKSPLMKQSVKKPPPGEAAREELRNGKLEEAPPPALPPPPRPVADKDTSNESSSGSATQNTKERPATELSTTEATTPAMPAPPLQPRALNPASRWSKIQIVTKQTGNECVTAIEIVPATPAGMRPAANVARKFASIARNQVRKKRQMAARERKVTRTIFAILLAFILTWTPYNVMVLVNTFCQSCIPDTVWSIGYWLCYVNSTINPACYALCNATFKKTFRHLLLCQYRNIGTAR
Receptor tyrosine-protein kinase erbB-2 (Homo sapiens), sequence (P04626 whole entry): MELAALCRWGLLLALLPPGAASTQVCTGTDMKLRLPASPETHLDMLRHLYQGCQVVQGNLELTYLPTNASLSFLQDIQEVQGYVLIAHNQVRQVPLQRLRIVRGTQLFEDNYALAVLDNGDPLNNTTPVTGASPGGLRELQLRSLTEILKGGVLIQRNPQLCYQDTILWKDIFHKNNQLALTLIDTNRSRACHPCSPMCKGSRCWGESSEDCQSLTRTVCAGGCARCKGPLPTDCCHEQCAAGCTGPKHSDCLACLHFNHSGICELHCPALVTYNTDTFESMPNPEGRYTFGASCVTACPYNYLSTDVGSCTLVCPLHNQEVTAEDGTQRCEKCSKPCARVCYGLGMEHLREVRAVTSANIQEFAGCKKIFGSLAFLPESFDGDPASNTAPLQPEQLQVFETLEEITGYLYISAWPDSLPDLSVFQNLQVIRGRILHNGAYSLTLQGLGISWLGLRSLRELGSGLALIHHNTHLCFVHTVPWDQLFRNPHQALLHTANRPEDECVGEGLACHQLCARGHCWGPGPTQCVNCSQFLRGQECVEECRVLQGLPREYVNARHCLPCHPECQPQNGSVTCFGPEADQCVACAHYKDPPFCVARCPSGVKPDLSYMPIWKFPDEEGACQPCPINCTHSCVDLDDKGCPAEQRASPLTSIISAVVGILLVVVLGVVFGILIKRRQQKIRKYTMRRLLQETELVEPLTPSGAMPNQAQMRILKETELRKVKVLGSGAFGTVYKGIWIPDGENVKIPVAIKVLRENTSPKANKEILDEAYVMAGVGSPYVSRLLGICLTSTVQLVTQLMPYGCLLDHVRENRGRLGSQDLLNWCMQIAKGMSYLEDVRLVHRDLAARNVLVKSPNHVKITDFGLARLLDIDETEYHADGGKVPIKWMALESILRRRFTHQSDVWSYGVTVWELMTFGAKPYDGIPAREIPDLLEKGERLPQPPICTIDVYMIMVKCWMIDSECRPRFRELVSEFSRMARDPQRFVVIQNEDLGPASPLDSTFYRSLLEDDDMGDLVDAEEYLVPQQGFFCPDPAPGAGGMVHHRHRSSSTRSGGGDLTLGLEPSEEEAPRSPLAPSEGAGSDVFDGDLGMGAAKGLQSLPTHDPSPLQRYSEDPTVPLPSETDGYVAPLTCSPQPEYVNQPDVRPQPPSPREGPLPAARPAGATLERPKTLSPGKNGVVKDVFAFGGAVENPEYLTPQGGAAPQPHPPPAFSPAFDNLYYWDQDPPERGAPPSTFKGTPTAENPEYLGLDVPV
Casein kinase II subunit alpha (Homo sapiens), sequence (P68400 whole entry, looked up): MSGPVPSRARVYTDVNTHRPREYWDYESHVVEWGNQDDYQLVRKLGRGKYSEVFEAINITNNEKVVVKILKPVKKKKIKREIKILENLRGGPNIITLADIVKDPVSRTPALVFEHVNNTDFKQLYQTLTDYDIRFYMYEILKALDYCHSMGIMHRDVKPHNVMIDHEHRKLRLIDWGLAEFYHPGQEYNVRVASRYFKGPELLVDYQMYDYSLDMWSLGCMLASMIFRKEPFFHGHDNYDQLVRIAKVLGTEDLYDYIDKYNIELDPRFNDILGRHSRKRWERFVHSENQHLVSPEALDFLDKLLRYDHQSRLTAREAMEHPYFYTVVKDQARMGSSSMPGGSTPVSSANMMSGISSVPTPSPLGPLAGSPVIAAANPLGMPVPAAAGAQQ

CC(=O)C1=C(C)N(c2cccc(C(F)(F)F)c2)C(=O)N[C@@H]1c1ccc(C#N)nc1 [BAY-678]
inactive: residual activity [1] 100% | residual activity [2] 87.1% | residual activity [3] 53.9% | residual activity [4] 75% | residual activity [5] 97.2% | residual activity [6] 92.6% | residual activity [7] 100% | residual activity [8] 96.2% | residual activity [9] 98.7% | residual activity [10] 84% | residual activity [11] 94.8% | residual activity [12] 100% | residual activity [13] 100% | residual activity [14] 67.2% | residual activity [15] 100% | inhibition [16] -6.72% | residual activity [17] 84.8% | residual activity [18] 100% | residual activity [19] 100% | residual activity [20] 85.9% | inhibition [21] -2.88% | inhibition [22] 6.06% | residual activity [23] 100% | residual activity [24] 91.2% | residual activity [25] 98.5% | residual activity [26] 96.4% | residual activity [27] 100% | residual activity [28] 96.9% | residual activity [29] 100% | residual activity [30] 100% | inhibition [31] 6.69% | residual activity [32] 75.4% | residual activity [33] 100% | residual activity [34] 94.3% | residual activity [35] 100% | residual activity [36] 71.5% | residual activity [37] 100% | residual activity [38] 95.6% | residual activity [39] 99.2% | residual activity [40] 100% | residual activity [41] 100% | residual activity [42] 100% | residual activity [43] 70.2% | residual activity [44] 100% | residual activity [45] 100%

Reference: ChEMBL document CHEMBL4507272 (2021)
